# Values of other authors as cited in US6506600B2, “Secreting products from skin by adeno-associated virus (AAV) gene transfer” (University of Arkansas, priority 2000, dated 2003).
# Experiments:
# [1] = tested on: neutrophil count; settings: patients with neutropenia due to chemotherapy; initial dose 5 microg/kg/day
# [2] = tested on: neutropenia; settings: neonates <32 weeks gestation; 10 μg/kg/d subcutaneous for 5 days
# [3] = tested on: pulmonary alveolar proteinosis; settings: four PAP patients; subcutaneous once daily for 12 wk, 3 to 9 μg/kg/d
Substance,rise of neutrophil count (median) [1],effect on neutropenia [2],"symptomatic, physiologic and radiographic response [3]",serum half-life (serum),t1/2 (in vivo)
granulocyte macrophage colony stimulating factor [GM-CSF],6.6 fold,completely abolished neutropenia,"Three of the four patients experienced symptomatic, physiologic, and radiographic improvement",8 h,
"hGH: human growth hormone, 22 kDa",,,,,4 min
